This note sets out measurements from patent publication US12522612B2, “PDE4 inhibitors, pharmaceutical compositions, and therapeutic applications” (BioTheryX, Inc., priority 2019, dated 2026).

The subject of this assay is TNF-α. Nature of the assay: Cell-based TNF-α inhibition assay in LPS-induced PBMCs (Meso Scale). The note with it: PBMC, PBMCs pretreated 1 h, LPS 100 ng/mL 18-24 h, relative to stimulated DMSO control; for inhibition at 1 µM: compound concentration 1 μM; for inhibition at 0.1 µM: compound concentration 0.1 μM. The method, then:
Frozen primary blood mononuclear cells (PBMCs) were quick thawed, washed once with RPMI 1640 media supplemented with 10% fetal bovine serum, 1% penicillin, and 1% streptomycin, and plated in a 96 well plate at 200,000 cells per well. The cells were pretreated with DMSO only as a control or a compound for 1 h, and then induced with LPS (lipopolysaccharide) (100 ng/mL) for 18-24 h. The supernatant was analyzed for TNF-α using the Meso Scale assay. Compound activity was determined as a percentage of the stimulated DMSO control. The results are summarized in Table 1, where A represents a percent inhibition value ≥60%; B represents a percent inhibition value <60% and ≥40%; C represents a percent inhibition value <40% and >20%; and D represents a single percent inhibition value <20%.

Usually inhibition stands for the percentage by which the read-out fell short of the control. As for `O=C1CCC(N2Cc3c(cc(F)cc3C3CCN(CCCCCOc4cc(C(=O)Nc5c(Cl)cncc5Cl)ccc4OC(F)F)CC3)C2=O)C(=O)N1` (centres unmarked) [Compound B46, N-(3,5-Dichloropyridin-4-yl)-4-(difluoromethoxy)-3-((5-(4-(2-(2,6-dioxopiperidin-3-yl)-6-fluoro-1-oxoisoindolin-4-yl)piperidin-1-yl)pentyl)oxy)benzamide], the inhibition at 1 µM was not below 60%.

As to `CCOc1cc([C@@H](CS(=O)(=O)C2CC2)N2C(=O)c3csc(NC(=O)COC)c3C2=O)ccc1OC` [Compound A11, (S)—N-(5-(2-(cyclopropylsulfonyl)-1-(3-ethoxy-4-methoxyphenyl)ethyl)-4,6-dioxo-5,6-dihydro-4H-thieno[3,4-c]pyrrol-1-yl)-2-methoxyacetamide], the inhibition at 0.1 µM was 20 to 40% and the inhibition at 1 µM was not below 60%. Consider `COc1ccc(C2CNC(=O)C2)cc1OCCCCCCCN1CCC(c2cc3c(cc2F)C(=O)N(C2CCC(=O)NC2=O)C3)CC1` (centres unmarked) [Compound B55, 3-(6-Fluoro-5-(1-(7-(2-methoxy-5-(5-oxopyrrolidin-3-yl)phenoxy)heptyl)piperidin-4-yl)-1-oxoisoindolin-2-yl)piperidine-2,6-dione], for which the inhibition at 1 µM was 20 to 40%.

In the case of `CCOc1cc([C@@H](CS(C)(=O)=O)N2C(=O)c3cccc(NC(=O)CCCCCCCCC(=O)N[C@H](C(=O)N4C[C@H](O)C[C@H]4C(=O)NCc4ccc(-c5scnc5C)cc4)C(C)(C)C)c3C2=O)ccc1OC` [Compound B63, N^1-(2-((S)-1-(3-Ethoxy-4-methoxyphenyl)-2-(methylsulfonyl)ethyl)-1,3-dioxoisoindolin-4-yl)-N^10—((S)-1-((2S,4R)-4-hydroxy-2-((4-(4-methylthiazol-5-yl)benzyl)carbamoyl)pyrrolidin-1-yl)-3,3-dimethyl-1-oxobutan-2-yl)decanediamide], the inhibition at 0.1 µM was not below 60% and the inhibition at 1 µM is not below 60%. Regarding `CCOc1cc([C@H](CS(=O)(=O)C2CC2)N2C(=O)c3csc(NC(=O)C(F)(F)F)c3C2=O)ccc1OC` [Compound A8, (R)—N-(5-(2-(cyclopropylsulfonyl)-1-(3-ethoxy-4-methoxyphenyl)ethyl)-4,6-dioxo-5,6-dihydro-4H-thieno[3,4-c]pyrrol-1-yl)-2,2,2-trifluoroacetamide], the inhibition at 0.1 µM was less than 20% and the inhibition at 1 µM is less than 20%. For the molecule `COc1ccc(C2CNC(=O)C2)cc1OCCCCCCCNc1cccc2c1C(=O)N(C1CCC(=O)NC1=O)C2=O` (centres unmarked) [Compound B66, 2-(2,6-Dioxopiperidin-3-yl)-4-((7-(2-methoxy-5-(5-oxopyrrolidin-3-yl)phenoxy)-heptyl)amino)isoindoline-1,3-dione], the inhibition at 1 µM was not below 60%. `CCOc1cc([C@H](CS(=O)(=O)C2CC2)N2C(=O)c3csc(NC(=O)COC)c3C2=O)ccc1OC` [Compound A9, (R)—N-(5-(2-(cyclopropylsulfonyl)-1-(3-ethoxy-4-methoxyphenyl)ethyl)-4,6-dioxo-5,6-dihydro-4H-thieno[3,4-c]pyrrol-1-yl)-2-methoxyacetamide]: the inhibition at 0.1 µM was 40 to 60% and the inhibition at 1 µM was not below 60%. For the molecule `CCOc1cc([C@@H](CS(C)(=O)=O)N2C(=O)c3cccc(NC(=O)CCOCc4ccc(COCCNc5cccc6c5C(=O)N(C5CCC(=O)NC5=O)C6=O)cc4)c3C2=O)ccc1OC` (stereo partly drawn) [Compound B64, 3-((4-((2-((2-(2,6-Dioxopiperidin-3-yl)-1,3-dioxoisoindolin-4-yl)amino)ethoxy)-methyl)benzyl)oxy)-N-(2-((S)-1-(3-ethoxy-4-methoxyphenyl)-2-(methylsulfonyl)ethyl)-1,3-dioxoisoindolin-4-yl)propanamide], the inhibition at 0.1 µM was not below 60% and the inhibition at 1 µM is not below 60%.

In the case of `CCOc1cc([C@@H](CS(C)(=O)=O)N2C(=O)c3cccc(NC(=O)CCCCCCCCNCc4ccc(OCc5scc6c5CN(C5CCC(=O)NC5=O)C6=O)cc4)c3C2=O)ccc1OC` (stereo partly drawn) [Compound B70, 9-((4-((5-(2,6-Dioxopiperidin-3-yl)-4-oxo-5,6-dihydro-4H-thieno[3,4-c]pyrrol-1-yl)methoxy)benzyl)amino)-N-(2-((S)-1-(3-ethoxy-4-methoxyphenyl)-2-(methylsulfonyl)ethyl)-1,3-dioxoisoindolin-4-yl)nonanamide], the inhibition at 0.1 µM is not below 60% and the inhibition at 1 µM was not below 60%.

`Cc1ncsc1-c1ccc(CNC(=O)[C@@H]2C[C@@H](O)CN2C(=O)[C@@H](NC(=O)CCCCCCCCOc2cc(C(=O)Nc3c(Cl)cncc3Cl)ccc2OCC2CC2)C(C)(C)C)cc1` [Compound B86, (2S,4R)-1-((S)-2-(9-(2-(Cyclopropylmethoxy)-5-((3,5-dichloropyridin-4-yl)carbamoyl)phenoxy)nonanamido)-3,3-dimethylbutanoyl)-4-hydroxy-N-(4-(4-methylthiazol-5-yl)benzyl)pyrrolidine-2-carboxamide]: the inhibition at 1 µM was not below 60%. Regarding `CCOc1cc([C@@H](CS(=O)(=O)C2CC2)N2C(=O)c3csc(NC(=O)C(F)(F)F)c3C2=O)ccc1OC` [Compound A7, (S)—N-(5-(2-(cyclopropylsulfonyl)-1-(3-ethoxy-4-methoxyphenyl)ethyl)-4,6-dioxo-5,6-dihydro-4H-thieno[3,4-c]pyrrol-1-yl)-2,2,2-trifluoroacetamide], the inhibition at 0.1 µM is less than 20% and the inhibition at 1 µM is less than 20%.

As to `O=C1CCC(N2Cc3c(cc(F)cc3C3CCN(CCCCCCCCCOc4cc(C(=O)Nc5c(Cl)cncc5Cl)ccc4OC(F)F)CC3)C2=O)C(=O)N1` (centres unmarked) [Compound B45, N-(3,5-Dichloropyridin-4-yl)-4-(difluoromethoxy)-3-((9-(4-(2-(2,6-dioxopiperidin-3-yl)-6-fluoro-1-oxoisoindolin-4-yl)piperidin-1-yl)nonyl)oxy)benzamide], the inhibition at 1 µM was not below 60%. Consider `COc1ccc([C@@H](CS(C)(=O)=O)N2C(=O)c3csc(NC(C)=O)c3C2=O)cc1OC1CC1` [Compound A4, (S)—N-(5-(1-(3-cyclopropoxy-4-methoxyphenyl)-2-(methylsulfonyl)ethyl)-4,6-dioxo-5,6-dihydro-4H-thieno[3,4-c]pyrrol-1-yl)acetamide], for which the inhibition at 0.1 µM lay in the range of 40 to 60% and the inhibition at 1 µM was not below 60%. Take `CCOc1cc([C@@H](CS(C)(=O)=O)N2C(=O)c3cc(CCCCC(=O)N4CCC(C#Cc5cccc6c5CN(C5CCC(=O)NC5=O)C6=O)CC4)cc(NC(C)=O)c3C2=O)ccc1OC` (stereo partly drawn) [Compound B16, N-(6-(5-(4-((2-(2,6-dioxopiperidin-3-yl)-1-oxoisoindolin-4-yl)ethynyl)piperidin-1-yl)-5-oxopentyl)-2-((S)-1-(3-ethoxy-4-methoxyphenyl)-2-(methylsulfonyl)ethyl)-1,3-dioxoisoindolin-4-yl)acetamide]: the inhibition at 0.1 µM is not below 60% and the inhibition at 1 µM is not below 60%.
